# According to patent US6921821B2, “Antagonists of melanin concentrating hormone receptor” (Abbott Laboratories, priority 2002, dated 2005):
# Where a name gives a salt, the structure may show the parent alone.
# Legend:
# MCH-R1 = MCH-R1 (Mus musculus, UniProt Q8JZL2); test: MCH-R1 antagonist activity, comparison of stereoisomers (assay not specified); details: qualitative comparison of isomers
# murine MCHR = target: T1, murine MCHR (Mus musculus, UniProt Q8JZL2); test: Assay for release of intracellular calcium (FLIPR, Fluo-4), inhibition of MCH-induced Ca++ flux; format: cell-based; details: test compound at a dose of 10 μM, HEK293 cells expressing the murine MCHR, read-out: inhibition of MCH (MCH induced Ca++ flux / fluorescence)
# T1 construct: expressed in transfected cells; host or cells: HEK293
# Method in brief: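 HEK293 cells expressing murine MCHR were loaded with Fluo-4AM (2.5 μM) and given compound (40 μM stock in 4% DMSO), with 3 min monitoring for agonism. They were then challenged with mouse MCH (12 nM as added) and FLIPR fluorescence followed 3 min more. % inhibition of MCH-induced Ca++ flux was calculated against baseline and no-compound signals.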
# T1 sequence (Q8JZL2 whole entry): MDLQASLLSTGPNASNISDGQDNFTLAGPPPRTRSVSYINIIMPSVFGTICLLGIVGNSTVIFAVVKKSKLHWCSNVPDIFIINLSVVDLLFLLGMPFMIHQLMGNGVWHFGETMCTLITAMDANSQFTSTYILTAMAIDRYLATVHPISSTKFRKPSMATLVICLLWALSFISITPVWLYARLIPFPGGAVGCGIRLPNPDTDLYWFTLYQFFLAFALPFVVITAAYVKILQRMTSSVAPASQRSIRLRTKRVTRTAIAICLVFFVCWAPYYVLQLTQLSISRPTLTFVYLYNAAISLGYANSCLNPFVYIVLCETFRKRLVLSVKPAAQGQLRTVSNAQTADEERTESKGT
# Sequence of MCH-R1 (Q8JZL2 whole entry): as above
inhibition at 10 µM (murine MCHR) [%],SMILES,"MCH-R1 antagonist activity, relative between stereoisomers (MCH-R1)"
≥ 50,"C[C@@H](c1ccc2ccccc2c1)N1CCC(Nc2cc(=O)oc3ccc(Cl)cc23)CC1 [II-120, (S)-6-Chloro-4-[1-(1-naphthalen-2-yl-ethyl)-piperdin-4-ylamino]-chromen-2-one]",
≥ 50,"COc1ccc2oc(=O)cc(NC3CCN(Cc4ccc5ocnc5c4)CC3)c2c1 [II-44, 4-(1-Benzooxazol-5-ylmethyl-piperidin-4-ylamino)-6-methoxy-chromen-2-one]",
≥ 50,"Cc1ccc2oc(=O)cc(NC3CCN(C/C=C/c4ccccc4[N+](=O)[O-])CC3)c2c1 [III-12, 6-Methyl-4-{1-[3-(2-nitro-phenyl)-allyl]-piperidin-4-ylamino}-chromen-2-one]",
≥ 50,"COc1ccc2oc(=O)cc(NC3CCN(Cc4ccc(C)c(C)c4)CC3)c2c1 [II-29, 4-[1-(3,4-Dimethyl-benzyl)-piperidin-4-ylamino]-6-methoxy-chromen-2-one trifluoroacetate]",
≥ 50,"C/C(=C\c1ccccc1)CN1CCC(Nc2cc(=O)oc3ccc(Cl)cc23)CC1 [III-18, 6-Chloro-4-[1-(2-methyl-3-phenyl-allyl)-piperidin-4-ylamino]-chromen-2-one]",
≥ 50,"COc1ccc2oc(=O)c(Cl)c(NC3CCN(Cc4ccc5c(c4)OCO5)CC3)c2c1 [II-90, 4-(1-Benzo[1,3]dioxol-5-ylmethyl-piperidin-4-ylamino)-3-chloro-6-methoxy-chromen-2-one]",
≥ 50,"COc1ccc2oc(=O)cc(NC3CCN(Cc4ccc5c(c4)OCCO5)CC3)c2c1 [II-64, 4-[1-(2,3-Dihydro-benzo[1,4]dioxin-6-ylmethyl)-piperidin-4-ylamino]-6-methoxy-chromen-2-one trifluoroacetate]",
≥ 50,"O=c1cc(NC2CCN(C/C=C/c3ccccc3)CC2)c2ccccc2o1 [III-24, 4-[1-(3-Phenyl-allyl)-piperidin-4-ylamino]-chromen-2-one]",
≥ 50,"COc1ccc2oc(=O)cc(NC3CCN(Cc4ccc(OCCCN5CCCCC5)c(F)c4)CC3)c2c1 [II-47, 4-{1-[3-Fluoro-4-(3-piperidin-1-yl-propoxy)-benzyl]-piperidin-4-ylamino}-6-methoxy-chromen-2-one; Double TFA Salt]",
≥ 50,"C=Cc1ccc2oc(=O)cc(NC3CCN(Cc4ccc5c(c4)CCO5)CC3)c2c1 [II-87, 4-[1-(2,3-Dihydro-benzofuran-5-ylmethyl)-piperidin-4-ylamino]-6-vinyl-chromen-2-one]",
≥ 50,"COc1ccc2oc(=O)cc(NC3CCN(Cc4ccc5ccccc5c4)CC3)c2c1 [II-19, 6-Methoxy-4-(1-naphthalen-2-ylmethyl-piperidin-4-ylamino)-chromen-2-one trifluoroacetate]",
≥ 50,"COc1ccc2oc(=O)cc(NC3CCN(Cc4ccc(C(=O)NCCN5CCCC5)cc4)CC3)c2c1 [II-86, 4-[4-(6-Methoxy-2-oxo-2H-chromen-4-ylamino)-piperidin-1-ylmethyl]-N-(2-pyrrolidin-1-yl-ethyl)-benzamide; Double TFA Salt]",
≥ 50,"COc1ccc2oc(=O)cc(NC3CCN(Cc4ccc(OC(F)F)cc4)CC3)c2c1 [II-43, 4-[1-(4-Difluoromethoxy-benzyl)-piperidin-4-ylamino]-6-methoxy-chromen-2-one trifluoroacetate]",
≥ 50,"COc1ccc2oc(=O)cc(N[C@H]3CCN(Cc4ccc5c(c4)OCO5)C[C@H]3C)c2c1 (stereo in doubt) [II-53, 4-(1-Benzo[1,3]dioxol-5-ylmethyl-3-methyl-piperidin-4-ylamino)-6-methoxy-chromen-2-one]",
≥ 50,O=C1CCCN1c1cc(Cl)cc2c(NC3CCN(Cc4ccc5c(c4)OCO5)CC3)cc(=O)oc12 [II-81],
≥ 50,"O=c1cc(NC2CCN(Cc3ccc(Cl)cc3)CC2)c2cc(Cl)ccc2o1 [II-59, 6-Chloro-4-{1-(4-chloro-benzyl)-piperidin-4-ylamino}-chromen-2-one]",

# Second part, the compound before the results:
SMILES,inhibition at 10 µM (murine MCHR) [%],"MCH-R1 antagonist activity, relative between stereoisomers (MCH-R1)"
"C[C@H](c1ccc2ccccc2c1)N1CCC(Nc2cc(=O)oc3ccc(Cl)cc23)CC1 [II-119, (R)-6-Chloro-4-[1-(1-naphthalen-2-yl-ethyl)-piperdin-4-ylamino]-chromen-2-one]",,more active than II-120
"O=c1cc(NC2CC3CCC(C2)N3Cc2ccc3c(c2)OCO3)c2cc(Cl)ccc2o1 (stereo not drawn) [II-122, (exo)-4-(8-Benzo[1,3]dioxol-5-ylmethyl-8-aza-bicyclo[3.2.1]oct-3-ylamino)-6-chloro-chromen-2-one]",,more active than the endo isomer II-123
"O=c1cc(NC2CCN(Cc3ccc4c(c3)OCO4)CC2)c2cc(Cl)ccc2n1Cc1ccccn1 [Compound V-2, 4-(1-Benzo[1,3]dioxol-5-ylmethyl-piperidin-4-ylamino)-6-chloro-1-pyridin-2-ylmethyl-1H-quinolin-2-one]",≥ 50,
"O=c1cc(NC2CCN(Cc3ccc4c(c3)OCO4)CC2)c2cc(Cl)ccc2[nH]1 [Compound V-11, 4-(1-Benzo[1,3]dioxol-5-ylmethyl-piperidin-4-ylamino)-6-chloro-1H-quinolin-2-one]",≥ 50,
"CC(C)c1ccc2c(c1)c(NC1CCN(Cc3ccc4c(c3)OCO4)CC1)cc(=O)n2C [Compound V-43, 4-(1-Benzo[1,3]dioxol-5-ylmethyl-piperidin-4-ylamino)-6-isopropyl-1-methyl-1H-quinolin-2-one]",≥ 50,
"CCn1c(=O)cc(NC2CCN(C/C=C/c3ccccc3)CC2)c2cc(Cl)ccc21 [Compound V-63, 6-Chloro-1-ethyl-4-[1-(3-phenyl-allyl)-piperidin-4-ylamino]-1H-quinolin-2-one]",≥ 50,
"Cc1ccc2c(c1)c(NC1CCN(Cc3ccc4ccccc4c3)CC1)cc(=O)n2C [Compound V-22, 1,6-Dimethyl-4-(1-naphthalen-2-ylmethyl-piperidin-4-ylamino)-1H-quinolin-2-one]",≥ 50,
"CCc1ccc2c(c1)c(NC1CCN(Cc3ccc4c(c3)OCO4)CC1)cc(=O)n2CC [Compound V-17, 4-(1-Benzo[1,3]dioxol-5-ylmethyl-piperidin-4-ylamino)-1,6-diethyl-1H-quinolin-2-one]",≥ 50,
"N#Cc1c(NC2CCN(Cc3ccc4ccccc4c3)CC2)c2cc(Cl)ccc2[nH]c1=O [Compound V-53, 6-Chloro-4-(1-naphthalen-2-ylmethyl-piperidin-4-ylamino)-2-oxo-1,2-dihydro-quinoline-3-carbonitrile]",≥ 50,
"CCc1ccc2c(c1)c(NC1CCN(Cc3ccc4occc4c3)CC1)cc(=O)n2CC [Compound V-28, 4-(1-Benzofuran-5-ylmethyl-piperidin-4-ylamino)-1,6-diethyl-1H-quinolin-2-one]",≥ 50,
